Experimental data taken from US20040048899A1, “Tartrate salts of thiazollidnedione derivative” (priority 2000, published 2004).
Where two headings read alike, the source gives them in different places.

Conditions: 1 month, glass bottle, product of Example 4
Description: The solid state stability of the drug substance was determined by storing approximately 1.0 g of the material in a glass bottle at i) 40° C./75% Relative Humidity (RH), open exposure, for 1 month and b) at 50° C., closed, for 1 month. The material was assayed by HPLC for final content and degradation products in both cases.

[1] = 40° C./75% Relative Humidity, open exposure

In the case of `CN(CCOc1ccc(CC2SC(=O)NC2=O)cc1)c1ccccn1.O=C(O)C(O)C(O)C(=O)O` (stereo not drawn) [D(−) Tartrate, 5-[4-[2-(N-methyl-N-(2-pyridyl)amino)ethoxy]benzyl]thiazolidine-2,4-dione, D(−) tartrate salt], the “Solid state stability: HPLC assay” value [1] is reported as 96 % initial, the “Solid state stability: degradation observed” value [1] is reported as “No significant degradation observed” and the “Solid state stability: HPLC assay” value (50° C., closed) is reported as 98 % initial. For the same compound, the “Solid state stability: degradation observed” value (50° C., closed) was “No significant degradation observed”.
